Source: ChEMBL document CHEMBL6096698, “Discovery of a Selective and Orally Bioavailable RET Degrader with Effectiveness in Various Mutations” (J Med Chem, 2025)
pIC50: −log10 of the molar value.

What was measured:
BaF3 [1] = test: Antiproliferative activity against mouse BaF3 cells stably expressing KIF5B-RET G810R mutant incubated for 72 hrs by CCK8 assay; format: functional, cell-based; conditions: BaF3, 72 h
BaF3 [2] = test: Antiproliferative activity against mouse BaF3 cells stably expressing KIF5B-RET incubated for 72 hrs by CCK8 assay; format: functional, cell-based; conditions: BaF3, 72 h
BaF3 [3] = test: PROTAC activity at CRBN/KIF5B-RET (unknown origin) expressed in mouse BaF3 cells assessed as induction of RET degradation at 10 nM incubated for 24 hrs by immunoblot analysis relative to control; format: cell-based
BaF3 [4] = test: Antiproliferative activity against mouse BaF3 cells stably expressing KIF5B-RET G810C mutant incubated for 72 hrs by CCK8 assay; format: functional, cell-based; conditions: BaF3, 72 h
BaF3 [5] = test: Antiproliferative activity against mouse BaF3 cells stably expressing KIF5B-RET G810S mutant incubated for 72 hrs by CCK8 assay; format: functional, cell-based; conditions: BaF3, 72 h
BaF3 [6] = test: Antiproliferative activity against mouse BaF3 cells stably expressing KIF5B-RET V804M mutant incubated for 72 hrs by CCK8 assay; format: functional, cell-based; conditions: BaF3, 72 h
BaF3 [7] = test: PROTAC activity at VHL/KIF5B-RET (unknown origin) expressed in mouse BaF3 cells assessed as induction of RET degradation at 10 nM incubated for 24 hrs by immunoblot analysis relative to control; format: cell-based

Compound	pIC50 (BaF3 [1])	pIC50 (BaF3 [2])	pIC50 (BaF3 [4])	pIC50 (BaF3 [5])	pIC50 (BaF3 [6])	Activity (BaF3 [3]) [%]	Activity (BaF3 [7]) [%]
COc1ccc(CN2C3CC2CN(c2ccc(-c4cc(N5CCN(C(=O)CCCNc6ccc7c(c6)C(=O)N(C6CCC(=O)NC6=O)C7=O)CC5)cn5ncc(C#N)c45)cn2)C3)cn1 (stereo not drawn)	5.79	7.88	5.85	6.70	6.68	41	–
COc1ccc(CN2C3CC2CN(c2ccc(-c4cc(N5CCN(C(=O)CCCCC(=O)N[C@H](C(=O)N6C[C@H](O)C[C@H]6C(=O)N[C@@H](C)c6ccc(-c7scnc7C)cc6)C(C)(C)C)CC5)cn5ncc(C#N)c45)cn2)C3)cn1	< 5.30	6.51	< 5.30	< 5.30	< 5.30	–	10
COc1ccc(CN2C3CC2CN(c2ccc(-c4cc(N5CCN(C(=O)CCCCCCCCC(=O)N[C@H](C(=O)N6C[C@H](O)C[C@H]6C(=O)N[C@@H](C)c6ccc(-c7scnc7C)cc6)C(C)(C)C)CC5)cn5ncc(C#N)c45)cn2)C3)cn1	< 5.30	7.91	6.39	6.66	7.44	–	39
COc1ccc(CN2C3CC2CN(c2ccc(-c4cc(N5CCN(C(=O)CNc6cccc7c6C(=O)N(C6CCC(=O)NC6=O)C7=O)CC5)cn5ncc(C#N)c45)cn2)C3)cn1 (stereo not drawn)	5.75	7.72	5.86	6.42	6.72	33	–
COc1ccc(CN2C3CC2CN(c2ccc(-c4cc(N5CCC(N6CCN(C(=O)CCCNc7ccc8c(c7)C(=O)N(C7CCC(=O)NC7=O)C8=O)CC6)CC5)cn5ncc(C#N)c45)cn2)C3)cn1 (stereo not drawn)	6.09	7.83	6.08	6.90	6.82	39	–
COc1ccc(CN2C3CC2CN(c2ccc(-c4cc(N5CCN(C6CCN(c7ccc8c(c7)C(=O)N(C7CCC(=O)NC7=O)C8=O)CC6)CC5)cn5ncc(C#N)c45)cn2)C3)cn1 (stereo not drawn)	6.12	7.80	6.43	< 5.30	7.42	36	–
COc1ccc(CN2C3CC2CN(c2ccc(-c4cc(N5CCN(CCCCCCCCC(=O)N[C@H](C(=O)N6C[C@H](O)C[C@H]6C(=O)N[C@@H](C)c6ccc(-c7scnc7C)cc6)C(C)(C)C)CC5)cn5ncc(C#N)c45)cn2)C3)cn1	5.73	7.85	6.28	6.17	6.97	–	38
COc1ccc(CN2C3CC2CN(c2ccc(-c4cc(N5CCN(C(=O)CCCCCCC(=O)N[C@H](C(=O)N6C[C@H](O)C[C@H]6C(=O)N[C@@H](C)c6ccc(-c7scnc7C)cc6)C(C)(C)C)CC5)cn5ncc(C#N)c45)cn2)C3)cn1	< 5.30	6.75	< 5.30	< 5.30	6.43	–	17
COc1ccc(CN2C3CC2CN(c2ccc(-c4cc(N5CCC(N6CCN(CCCCCC#Cc7cccc8c7CN(C7CCC(=O)NC7=O)C8=O)CC6)CC5)cn5ncc(C#N)c45)cn2)C3)cn1 (stereo not drawn)	6.13	7.90	7.21	6.98	7.56	40	–
COc1ccc(CN2C3CC2CN(c2ccc(-c4cc(N5CCN(C(=O)CCCCCNc6cccc7c6C(=O)N(C6CCC(=O)NC6=O)C7=O)CC5)cn5ncc(C#N)c45)cn2)C3)cn1 (stereo not drawn)	6.10	8.21	6.67	6.98	7.76	52	–
COc1ccc(CN2C3CC2CN(c2ccc(-c4cc(N5CCN(C(=O)CCCCCCCCCCC(=O)N[C@H](C(=O)N6C[C@H](O)C[C@H]6C(=O)N[C@@H](C)c6ccc(-c7scnc7C)cc6)C(C)(C)C)CC5)cn5ncc(C#N)c45)cn2)C3)cn1	5.88	7.45	6.09	6.26	7.07	–	24
COc1ccc(CN2C3CC2CN(c2ccc(-c4cc(N5CCN(CCCCC(=O)N[C@H](C(=O)N6C[C@H](O)C[C@H]6C(=O)N[C@@H](C)c6ccc(-c7scnc7C)cc6)C(C)(C)C)CC5)cn5ncc(C#N)c45)cn2)C3)cn1	< 5.30	6.64	6.07	< 5.30	6.55	–	15
COc1ccc(CN2C3CC2CN(c2ccc(-c4cc(N5CCN(CC6CCN(c7ccc8c(c7)C(=O)N(C7CCC(=O)NC7=O)C8=O)CC6)CC5)cn5ncc(C#N)c45)cn2)C3)cn1 (stereo not drawn)	5.72	7.99	6.72	6.90	7.67	41	–
COc1ccc(CN2C3CC2CN(c2ccc(-c4cc(N5CCN(C(=O)CNc6ccc7c(c6)C(=O)N(C6CCC(=O)NC6=O)C7=O)CC5)cn5ncc(C#N)c45)cn2)C3)cn1 (stereo not drawn)	5.92	7.78	5.88	6.75	6.75	40	–
COc1ccc(CN2C3CC2CN(c2ccc(-c4cc(N5CCN(C(=O)CCCCCNc6ccc7c(c6)C(=O)N(C6CCC(=O)NC6=O)C7=O)CC5)cn5ncc(C#N)c45)cn2)C3)cn1 (stereo not drawn)	6.09	8.17	6.63	6.90	7.76	49	–
COc1ccc(CN2C3CC2CN(c2ccc(-c4cc(N5CCN(C(=O)CCCNc6cccc7c6C(=O)N(C6CCC(=O)NC6=O)C7=O)CC5)cn5ncc(C#N)c45)cn2)C3)cn1 (stereo not drawn)	5.94	7.91	5.99	6.56	6.85	44	–

Stronger by pIC50 (BaF3 [1]), values ahead:

pIC50 (BaF3 [1])	pIC50 (BaF3 [2])	pIC50 (BaF3 [4])	pIC50 (BaF3 [5])	pIC50 (BaF3 [6])	Compound	Activity (BaF3 [3]) [%]	Activity (BaF3 [7]) [%]
6.17	8.23	6.67	7.03	7.75	COc1ccc(CN2C3CC2CN(c2ccc(-c4cc(N5CCC(N6CCN(C(=O)CCCCCCCNc7cccc8c7C(=O)N(C7CCC(=O)NC7=O)C8=O)CC6)CC5)cn5ncc(C#N)c45)cn2)C3)cn1 (stereo not drawn)	50	–
6.49	8.29	7.05	7.08	7.91	COc1ccc(CN2C3CC2CN(c2ccc(-c4cc(N5CCC(N6CCN(CCCC#Cc7ccc8c(c7)C(=O)N(C7CCC(=O)NC7=O)C8=O)CC6)CC5)cn5ncc(C#N)c45)cn2)C3)cn1 (stereo not drawn)	60	–
6.15	8.24	6.64	6.99	7.85	COc1ccc(CN2C3CC2CN(c2ccc(-c4cc(N5CCN(C(=O)CCCCCCCNc6ccc7c(c6)C(=O)N(C6CCC(=O)NC6=O)C7=O)CC5)cn5ncc(C#N)c45)cn2)C3)cn1 (stereo not drawn)	52	–
6.21	8.47	6.72	7.06	7.85	COc1ccc(CN2C3CC2CN(c2ccc(-c4cc(N5CCC(N6CCN(C(=O)CCCCCCCNc7ccc8c(c7)C(=O)N(C7CCC(=O)NC7=O)C8=O)CC6)CC5)cn5ncc(C#N)c45)cn2)C3)cn1 (stereo not drawn)	58	–
6.24	8.28	6.69	7.09	7.78	COc1ccc(CN2C3CC2CN(c2ccc(-c4cc(N5CCC(N6CCN(C(=O)CNc7ccc8c(c7)C(=O)N(C7CCC(=O)NC7=O)C8=O)CC6)CC5)cn5ncc(C#N)c45)cn2)C3)cn1 (stereo not drawn)	52	–
6.69	8.37	7.27	7.20	8.03	COc1ccc(CN2C3CC2CN(c2ccc(-c4cc(N5CCC(N6CCN(CCCC#Cc7cccc8c7C(=O)N(C7CCC(=O)NC7=O)C8=O)CC6)CC5)cn5ncc(C#N)c45)cn2)C3)cn1 (stereo not drawn)	62	–
6.20	7.84	6.70	7.05	7.82	COc1ccc(CN2C3CC2CN(c2ccc(-c4cc(N5CCC(N6CCN(C(=O)CNc7cccc8c7C(=O)N(C7CCC(=O)NC7=O)C8=O)CC6)CC5)cn5ncc(C#N)c45)cn2)C3)cn1 (stereo not drawn)	36	–
